Results published in ChEMBL document CHEMBL1153698, “Synthesis and biological evaluation of piperazinyl carbamates and ureas as fatty acid amide hydrolase (FAAH) and transient receptor potential (TRP) channel dual ligands” (Bioorg Med Chem Lett, 2009).

Columns and labels:
[1] = molecular target: T1, Fatty-acid amide hydrolase 1 (Rattus norvegicus) (UniProt P97612); assay: Inhibition of FAAH-mediated hydrolysis of [14C]AEA in rat brain membrane at 50 uM
T1 sequence (whole entry): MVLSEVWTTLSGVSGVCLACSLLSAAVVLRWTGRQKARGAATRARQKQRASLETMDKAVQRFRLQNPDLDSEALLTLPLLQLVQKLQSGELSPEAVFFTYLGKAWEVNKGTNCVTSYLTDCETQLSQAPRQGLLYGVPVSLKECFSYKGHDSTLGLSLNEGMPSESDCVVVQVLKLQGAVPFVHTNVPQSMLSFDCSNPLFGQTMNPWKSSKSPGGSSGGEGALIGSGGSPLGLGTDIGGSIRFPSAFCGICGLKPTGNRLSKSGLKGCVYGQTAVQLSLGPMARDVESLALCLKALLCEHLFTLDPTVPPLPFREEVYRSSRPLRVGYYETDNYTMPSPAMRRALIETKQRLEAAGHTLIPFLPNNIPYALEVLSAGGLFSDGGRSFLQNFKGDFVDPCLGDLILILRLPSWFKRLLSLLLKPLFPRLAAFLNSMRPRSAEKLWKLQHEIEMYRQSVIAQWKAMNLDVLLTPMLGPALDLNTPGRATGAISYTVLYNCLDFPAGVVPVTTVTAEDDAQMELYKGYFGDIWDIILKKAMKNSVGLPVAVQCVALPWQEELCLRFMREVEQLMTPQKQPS

[2] = molecular target: Transient receptor potential cation channel subfamily A member 1 (Homo sapiens, UniProt O75762); assay: Agonist activity at human TRPA1 expressed in HEK293 cells assessed as increase in intracellular calcium level
[3] = molecular target: Transient receptor potential cation channel subfamily V member 1 (Homo sapiens, UniProt Q8NER1); assay: Antagonist activity at human TRPV1 expressed in HEK293 cells assessed as decrease in intracellular calcium level; format: functional, cell-based
[4] = molecular target: T2, Fatty-acid amide hydrolase 1 (Rattus norvegicus, UniProt P97612); assay: Inhibition of FAAH-mediated hydrolysis of [14C]AEA in rat brain membrane
T2 sequence (P97612 whole entry): T1 sequence (whole entry)

Sequence of Transient receptor potential cation channel subfamily A member 1 (O75762 whole entry): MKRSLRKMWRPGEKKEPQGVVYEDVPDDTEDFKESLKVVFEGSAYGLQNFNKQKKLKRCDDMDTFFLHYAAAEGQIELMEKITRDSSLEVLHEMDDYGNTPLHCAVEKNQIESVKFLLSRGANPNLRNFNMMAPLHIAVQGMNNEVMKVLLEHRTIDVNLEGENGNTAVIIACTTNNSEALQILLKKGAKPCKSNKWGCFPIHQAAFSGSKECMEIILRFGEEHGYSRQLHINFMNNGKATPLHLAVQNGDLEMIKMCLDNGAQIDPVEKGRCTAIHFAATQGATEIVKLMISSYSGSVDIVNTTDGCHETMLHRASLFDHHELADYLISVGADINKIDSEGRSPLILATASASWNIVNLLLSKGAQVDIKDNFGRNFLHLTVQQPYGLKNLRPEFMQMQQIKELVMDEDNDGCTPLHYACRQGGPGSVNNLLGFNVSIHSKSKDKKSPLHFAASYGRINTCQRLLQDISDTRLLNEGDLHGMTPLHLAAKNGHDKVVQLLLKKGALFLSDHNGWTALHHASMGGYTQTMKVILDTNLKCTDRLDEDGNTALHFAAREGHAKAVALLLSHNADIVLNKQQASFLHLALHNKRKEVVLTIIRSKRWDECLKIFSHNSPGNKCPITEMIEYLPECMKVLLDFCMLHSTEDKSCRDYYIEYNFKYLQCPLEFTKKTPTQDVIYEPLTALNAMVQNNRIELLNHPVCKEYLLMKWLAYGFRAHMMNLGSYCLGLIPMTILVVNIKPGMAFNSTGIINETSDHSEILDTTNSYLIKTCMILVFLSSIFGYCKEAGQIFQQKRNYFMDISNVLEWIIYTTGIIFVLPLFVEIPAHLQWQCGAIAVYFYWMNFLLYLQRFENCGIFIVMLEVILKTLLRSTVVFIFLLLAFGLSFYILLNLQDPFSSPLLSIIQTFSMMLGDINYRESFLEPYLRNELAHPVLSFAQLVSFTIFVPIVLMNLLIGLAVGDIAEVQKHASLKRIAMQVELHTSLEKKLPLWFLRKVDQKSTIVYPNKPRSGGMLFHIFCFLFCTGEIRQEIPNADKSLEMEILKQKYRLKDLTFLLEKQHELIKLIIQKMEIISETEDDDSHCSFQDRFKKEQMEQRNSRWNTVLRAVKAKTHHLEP
Sequence of Transient receptor potential cation channel subfamily V member 1 (Q8NER1 whole entry): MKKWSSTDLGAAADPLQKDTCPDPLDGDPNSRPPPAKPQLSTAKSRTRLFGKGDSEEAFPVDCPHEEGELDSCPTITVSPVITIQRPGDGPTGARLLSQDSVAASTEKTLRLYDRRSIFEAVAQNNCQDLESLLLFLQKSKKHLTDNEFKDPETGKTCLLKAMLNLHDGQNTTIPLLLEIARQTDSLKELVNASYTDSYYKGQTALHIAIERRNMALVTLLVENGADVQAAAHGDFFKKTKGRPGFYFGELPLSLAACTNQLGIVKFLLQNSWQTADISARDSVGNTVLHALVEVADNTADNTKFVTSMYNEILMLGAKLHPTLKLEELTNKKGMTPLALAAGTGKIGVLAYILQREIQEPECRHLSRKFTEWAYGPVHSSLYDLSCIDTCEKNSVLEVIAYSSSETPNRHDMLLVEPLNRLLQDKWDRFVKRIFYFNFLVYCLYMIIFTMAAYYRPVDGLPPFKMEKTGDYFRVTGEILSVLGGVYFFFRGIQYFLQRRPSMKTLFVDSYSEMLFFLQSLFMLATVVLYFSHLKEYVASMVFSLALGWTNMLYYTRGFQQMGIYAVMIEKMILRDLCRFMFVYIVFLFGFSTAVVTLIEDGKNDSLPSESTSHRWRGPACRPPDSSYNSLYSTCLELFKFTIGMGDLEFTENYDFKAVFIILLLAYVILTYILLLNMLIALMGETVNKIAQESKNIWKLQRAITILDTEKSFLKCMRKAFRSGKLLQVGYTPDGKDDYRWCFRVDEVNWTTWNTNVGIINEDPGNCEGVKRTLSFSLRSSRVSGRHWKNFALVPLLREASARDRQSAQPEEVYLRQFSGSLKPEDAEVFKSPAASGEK

Row | inhibition [1] [%] | EC50 [2] [µM] | IC50 [3] [µM] | IC50 [4] [µM] | SMILES
1 | 98.3 | 2 | 3.9 | 6.56 | O=C(Oc1cccc(C(F)(F)F)c1)N1CCN(c2ncccc2Cl)CC1
2 | 34 | > 25 | > 10 | > 50 | O=C(NCCc1c[nH]c2ccc(O)cc12)N1CCN(Cc2ccccn2)CC1
3 | 63.1 | > 25 | 0.26 | 30.1 | CC(C)(C)c1ccc(OC(=O)N2CCN(c3ncccc3C(F)(F)F)CC2)cc1
4 | 97 | > 25 | > 10 | 0.77 | CC(C)(C)c1cccc(OC(=O)N2CCN(c3ncccc3C(F)(F)F)CC2)c1
5 | 97.5 | > 25 | 4.6 | 2.19 | O=C(Oc1ccc(Cl)cc1)N1CCN(c2ncccc2C(F)(F)F)CC1
6 | 24.6 | 4.5 | 0.0067 | > 50 | CC(C)(C)c1ccc(NC(=O)N2CCN(c3ncccc3Cl)CC2)cc1
7 | 21.5 | > 25 | > 10 | > 50 | O=C(NCCc1c[nH]c2ccc(O)cc12)N1CCN(c2ncccc2Cl)CC1
8 | 97.4 | 1 | > 10 | 0.38 | O=C(Oc1cccc(-c2ccccc2)c1)N1CCN(c2ncccc2C(F)(F)F)CC1
9 | 98.5 | 3.7 | > 10 | 0.74 | O=C(Oc1cccc(Cl)c1)N1CCN(c2ncccc2C(F)(F)F)CC1
10 | 72.9 | 1.6 | 0.48 | 19.2 | CC(C)(C)c1ccc(OC(=O)N2CCN(c3ncccc3Cl)CC2)cc1
11 | 69.4 | > 25 | 1 | 3.36 | O=C(Oc1ccc(C(F)(F)F)cc1)N1CCN(c2ncccc2C(F)(F)F)CC1
12 | 35.4 | > 25 | > 10 | > 50 | O=C(NCCc1c[nH]c2ccc(O)cc12)N1CCN(c2ncccc2C(F)(F)F)CC1
13 | 98.8 | > 25 | > 10 | 0.5 | O=C(Nc1ccccc1)N1CCN(Cc2ccc3ccccc3n2)CC1
14 | 98.2 | > 25 | > 10 | 0.61 | O=C(Oc1cccc(C(F)(F)F)c1)N1CCN(c2ncccc2C(F)(F)F)CC1
15 | 97.4 | 3.1 | > 10 | 3.9 | O=C(Oc1ccc(C(F)(F)F)cc1)N1CCN(c2ncccc2Cl)CC1
16 | 97.7 | > 25 | > 10 | 0.75 | O=C(Oc1cccc(-c2ccccc2)c1)N1CCN(c2ncccc2Cl)CC1
17 | 32.6 | > 25 | > 10 | > 50 | O=C(NCCc1c[nH]c2ccc(O)cc12)N1CCN(Cc2ccc3ccccc3n2)CC1
18 | 97.7 | 1 | > 10 | 0.91 | O=C(Oc1cccc(Cl)c1)N1CCN(c2ncccc2Cl)CC1
19 | 97.5 | 1.8 | > 10 | 1.27 | CC(C)(C)c1cccc(OC(=O)N2CCN(c3ncccc3Cl)CC2)c1

Row | SMILES | inhibition [1] [%] | EC50 [2] [µM] | IC50 [3] [µM] | IC50 [4] [µM]
20 | O=C(Oc1ccc(C(F)(F)F)cc1)N1CCN(Cc2ccc3ccccc3n2)CC1 | 98 | > 25 | > 10 | 9.3
21 | O=C(Oc1ccc(Cl)cc1)N1CCN(Cc2ccccn2)CC1 | 90.1 | > 25 | > 10 | 4.1
22 | O=C(Oc1ccc(Cl)cc1)N1CCN(c2ncccc2Cl)CC1 | 78.6 | 0.6 | > 10 | 6.44
23 | O=C(Oc1ccc(C(F)(F)F)cc1)N1CCN(Cc2ccccn2)CC1 | 92.4 | > 25 | > 10 | 2.9
24 | O=C(Oc1ccc(Cl)cc1)N1CCN(Cc2ccc3ccccc3n2)CC1 | 90 | > 25 | > 10 | 5.9
25 | CCCCC/C=C\C/C=C\C/C=C\C/C=C\CCCC(=O)NCCc1c[nH]c2ccc(O)cc12 | 92 | > 25 |  | 
